Assay results published in US20230001396A1, “COMPOSITIONS AND METHODS FOR CONTROLLED DELIVERY AND PROTECTION OF THERAPEUTIC AGENTS” (Board of Regents, The University of Texas System, priority 2019, published 2023).

Assay: Ex vitro study: fluorescence intensity over time in 1×PBS at 37° C.
Format: physicochemical
Conditions: 1×PBS buffer pH 7.4 and 5.4, 37° C.
Procedure: Ex vitro study: In order to observe the stability of PLGA microparticles in blood ex vitro study was done by the presence of fluorescence intensity after treating the Cy5@ZIF-8@PLGA particles in 1×PBS buffer. The experiment was performed at two different pH conditions. One was pH 7.4 which is the normal blood pH and another was pH 5.4 which mimic the extreme pH condition of blood in different disease states. The fluorescence intensity was measured at different time intervals. For that four types of samples were prepared every time. In two Eppendorf tubes PBS buffer of pH 7.4 and 5.4 were taken and fluorescence intensity was measured and found no peaks. PLGA microparticles were dissolved in 1×PBS buffer pH 7.4 and pH 5.4 with 10 mins centrifugation in Beckman ultra-small centrifuge machine at 3225×g. Only the dissolved clear supernatant was taken and kept in a hot room (37° C.). In another two Eppendorf tubes, Cy5 dye was dissolved in 1×PBS buffer pH 7.4 and 5.4 and kept under the same conditions as the PLGA microparticles to validate the change of fluorescence intensity of Cy5 dye at 37° C. (FIGS. 8A-8D).
It is believed that the PLGA microparticles further preserve the Cy5 dye and act as a sustained release protective shell which can enhance the release period of model drug Cy5 at blood pH.

In the case of C[N+]1=C(C=CC=CC=C2N(CCCCCC(=O)O)c3ccc(S(=O)(=O)O)cc3C2(C)C)C(C)(C)c2cc(S(=O)(=O)[O-])ccc21 [Cy5 dye, 3H-Indolium, 2-[5-[1-(5-Carboxypentyl)-1,3-dihydro-3,3-dimethyl-5-sulfo-2H-indol-ylidene]-1,3-pentadien-1-yl]-1-methyl-3,3-dimethyl-5-sulfonate], the “change of fluorescence intensity over time” value is reported as “did not show any regular change of fluorescence intensity over time”.
